Source: patent publication US5116949A, “Benzoyl urea compound-albumin complex” (Ishihara Sangyo Kaisha Ltd., priority 1988, dated 1992)
Converted amounts (≈) assume the structure as drawn.

Test: Solubility in distilled water for injection drug
Type: physicochemical
Conditions: Compound 3 alone, read-out: Solubility (as Compound 3)

With `O=C(NC(=O)c1ccccc1[N+](=O)[O-])Nc1ccc(Oc2ncc(Br)cn2)c(Cl)c1` [Compound 3] the solubility was 0.024 µg/mL (≈ 0.0487 µM).
